Literature values in patent publication US20070105758A1 (priority 2005, published 2007).

Settings: oral route in sensitive individuals

NCCc1c[nH]cn1 [histamine]
histamine concentration known to be biologically active: > 5 nM
